Data reported in US10981926B2 (Janssen Pharmaceutica NV, priority 2016, dated 2021).

Tests used:
Assay type in all cases: cell-based
[1] = target: T1, F876L mutant Androgen Receptor (AR-F876L) (Homo sapiens (Human), UniProt P10275, F877L); test: LNCaP-AR-F876L AG reporter assay (agonist mode); details: agonist mode; for Emax: maximum % stimulation over tested concentration range, read-out: LNCaP-AR-F876L AG MAX % Stim; for EC50: pEC50 = −Log10(EC50 in Molar), read-out: LNCaP-AR-F876L AG pEC50 (converted)
[2] = target: T2, wild-type Androgen Receptor (AR-wt) (Homo sapiens (Human), UniProt P10275); test: LNCaP-AR-wt ANT reporter assay (antagonist mode); details: antagonist mode; for Emax: maximum % inhibition of R1881 control response over tested concentration range, read-out: LNCaP-AR-wt ANT MAX % Inh; for IC50: pIC50 = −Log10(IC50 in Molar), read-out: LNCaP-AR-wt ANT pIC50 (converted)
[3] = target: T1, F876L mutant Androgen Receptor (AR-F876L); test: LNCaP-AR-F876L ANT reporter assay (antagonist mode); details: antagonist mode; for Emax: maximum % inhibition of R1881 control response over tested concentration range, read-out: LNCaP-AR-F876L ANT MAX % Inh; for IC50: pIC50 = −Log10(IC50 in Molar), read-out: LNCaP-AR-F876L ANT pIC50 (converted)
[4] = target: T2, wild-type Androgen Receptor (AR-wt); test: LNCaP-AR-wt AG reporter assay (agonist mode); details: agonist mode; for Emax: maximum % stimulation over tested concentration range, read-out: LNCaP-AR-wt AG MAX % Stim; for EC50: pEC50 = −Log10(EC50 in Molar), read-out: LNCaP-AR-wt AG pEC50 (converted)

T1 sequence (P10275 whole entry F877L): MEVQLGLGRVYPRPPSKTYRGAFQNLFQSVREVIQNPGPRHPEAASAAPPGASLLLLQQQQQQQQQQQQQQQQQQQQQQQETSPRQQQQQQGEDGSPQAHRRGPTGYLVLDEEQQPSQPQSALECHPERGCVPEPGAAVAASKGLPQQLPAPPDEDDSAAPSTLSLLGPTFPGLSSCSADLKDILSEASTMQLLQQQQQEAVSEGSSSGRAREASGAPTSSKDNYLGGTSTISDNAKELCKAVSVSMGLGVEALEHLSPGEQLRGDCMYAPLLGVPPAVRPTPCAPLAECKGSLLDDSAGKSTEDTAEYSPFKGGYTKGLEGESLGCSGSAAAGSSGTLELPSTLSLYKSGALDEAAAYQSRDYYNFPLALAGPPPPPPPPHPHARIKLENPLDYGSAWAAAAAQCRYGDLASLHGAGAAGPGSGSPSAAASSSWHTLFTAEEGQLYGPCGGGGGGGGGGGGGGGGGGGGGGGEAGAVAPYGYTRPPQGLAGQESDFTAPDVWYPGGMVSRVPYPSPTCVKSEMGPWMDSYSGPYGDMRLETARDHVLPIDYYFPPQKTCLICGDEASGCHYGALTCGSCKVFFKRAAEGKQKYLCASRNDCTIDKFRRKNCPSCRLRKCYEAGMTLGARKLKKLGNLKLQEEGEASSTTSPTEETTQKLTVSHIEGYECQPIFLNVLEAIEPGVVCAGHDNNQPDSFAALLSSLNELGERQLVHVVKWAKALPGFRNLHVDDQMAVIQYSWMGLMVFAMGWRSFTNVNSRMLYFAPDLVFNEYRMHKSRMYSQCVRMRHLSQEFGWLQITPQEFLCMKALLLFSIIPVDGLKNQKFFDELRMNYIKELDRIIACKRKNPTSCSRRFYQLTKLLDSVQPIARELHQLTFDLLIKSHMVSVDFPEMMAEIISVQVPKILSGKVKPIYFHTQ
T2 sequence (P10275 whole entry): as the sequence (P10275 whole entry F877L) above, with L877F counted along it

## CN1CC(CNC(=O)c2ccc(N3C(=S)N(c4cnc(C#N)c(C(F)(F)F)c4)C(=O)C34CCC4)cc2)C1 [Cpd 216, 4-[6-[6-cyano-5-(trifluoromethyl)-3-pyridyl]-5-oxo-7-thioxo-6,8-diazaspiro[3.4]octan-8-yl]-N-[(1-methylazetidin-3-yl)methyl]benzamide]
[1]
  Emax: 0%
  EC50: > 15100 nM
[2]
  Emax: 98.8%
  IC50: 1620 nM
[3]
  Emax: 98.7%
  IC50: 1480 nM
[4]
  Emax: 0.1%
  EC50: > 15100 nM

## N#Cc1ncc(N2C(=O)C3(CCC3)N(c3ccc(CN4CCOCC4)cc3)C2=S)cc1C(F)(F)F [Cpd 217, 5-[8-[4-(morpholinomethyl)phenyl]-5-oxo-7-thioxo-6,8-diazaspiro[3.4]octan-6-yl]-3-(trifluoromethyl)pyridine-2-carbonitrile]
[1]
  Emax: 0.1%
  EC50: > 15100 nM
[2]
  Emax: 102%
  IC50: 372 nM
[3]
  Emax: 100%
  IC50: 355 nM
[4]
  Emax: 0.4%
  EC50: > 15100 nM

## CN1CC[C@H](CNC(=O)c2ccc(N3C(=S)N(c4cnc(C#N)c(C(F)(F)F)c4)C(=O)C34CCC4)cc2F)C1 [Cpd 218, 4-[6-[6-cyano-5-(trifluoromethyl)-3-pyridyl]-5-oxo-7-thioxo-6,8-diazaspiro[3.4]octan-8-yl]-2-fluoro-N-[[(3R)-1-methylpyrrolidin-3-yl]methyl]benzamide]
[1]
  Emax: 0.1%
  EC50: > 15100 nM
[2]
  Emax: 102%
  IC50: 1170 nM
[3]
  Emax: 99.6%
  IC50: 912 nM
[4]
  Emax: 0%
  EC50: > 15100 nM

## CN1CCN(Cc2ccc(N3C(=S)N(c4cnc(C#N)c(Cl)c4)C(=O)C34CCC4)cc2)CC1 [Cpd 219, 3-chloro-5-[8-[4-[(4-methylpiperazin-1-yl)methyl]phenyl]-5-oxo-7-thioxo-6,8-diazaspiro[3 4]octan-6-yl]pyridine-2-carbonitrile]
[1]
  Emax: 0.2%
  EC50: > 15100 nM
[2]
  Emax: 102%
  IC50: 372 nM
[3]
  Emax: 101%
  IC50: 347 nM
[4]
  Emax: 0.3%
  EC50: > 15100 nM

## N#Cc1ncc(N2C(=O)C3(CCC3)N(c3ccc(CN4CCN(C5CC5)CC4)cc3)C2=S)cc1C(F)(F)F [Cpd 220, 5-[8-[4-[(4-cyclopropylpiperazin-1-yl)methyl]phenyl]-5-oxo-7-thioxo-6,8-diazaspiro[3.4]octan-6-yl]-3-(trifluoromethyl)pyridine-2-carbonitrile]
[1]
  Emax: 0.1%
  EC50: > 15100 nM
[2]
  Emax: 102%
  IC50: 741 nM
[3]
  Emax: 101%
  IC50: 589 nM
[4]
  Emax: 0.1%
  EC50: > 15100 nM

## N#Cc1ncc(N2C(=O)C3(CCC3)N(c3ccc(C(=O)NCC4CCNCC4)c(F)c3)C2=S)cc1C(F)(F)F [Cpd 221, 4-[6-[6-cyano-5-(trifluoromethyl)-3-pyridyl]-5-oxo-7-thioxo-6,8-diazaspiro[3.4]octan-8-yl]-2-fluoro-N-(4-piperidylmethyl)benzamide]
[1]
  Emax: 0.1%
  EC50: > 15100 nM
[2]
  Emax: 101%
  IC50: 891 nM
[3]
  Emax: 100%
  IC50: 589 nM
[4]
  Emax: -0.1%
  EC50: > 15100 nM

## N#Cc1ncc(N2C(=O)C3(CCC3)N(c3ccc(CN4CCC(N)CC4)cc3)C2=S)cc1C(F)(F)F [Cpd 224, 5-[8-[4-[(4-amino-1-piperidyl)methyl]phenyl]-5-oxo-7-thioxo-6,8-diazaspiro[3.4]octan-6-yl]-3-(trifluoromethyl)pyridine-2-carbonitrile]
[1]
  Emax: 0.1%
  EC50: > 15100 nM
[2]
  Emax: 101%
  IC50: 1780 nM
[3]
  Emax: 100%
  IC50: 1480 nM
[4]
  Emax: 0%
  EC50: > 15100 nM

## N#Cc1ncc(N2C(=O)C3(CCC3)N(c3ccc(CN4CCN(CCO)CC4)cc3)C2=S)cc1C(F)(F)F [Cpd 227, 5-[8-[4-[[4-(2-hydroxyethyl)piperazin-1-yl]methyl]phenyl]-5-oxo-7-thioxo-6,8-diazaspiro[3.4]octan-6-yl]-3-(trifluoromethyl)pyridine-2-carbonitrile]
[1]
  Emax: 0.1%
  EC50: > 15100 nM
[2]
  Emax: 102%
  IC50: 513 nM
[3]
  Emax: 100%
  IC50: 417 nM
[4]
  Emax: -0.2%
  EC50: > 15100 nM

## N#Cc1ncc(N2C(=O)C3(CCC3)N(c3ccc(CN4CCNC(=O)C4)cc3)C2=S)cc1C(F)(F)F [Cpd 228, 5-[5-oxo-8-[4-[(3-oxopiperazin-1-yl)methyl]phenyl]-7-thioxo-6,8-diazaspiro[3.4]octan-6-yl]-3-(trifluoromethyl)pyridine-2-carbonitrile]
[1]
  Emax: 0.1%
  EC50: > 15100 nM
[2]
  Emax: 102%
  IC50: 209 nM
[3]
  Emax: 101%
  IC50: 115 nM
[4]
  Emax: -0.2%
  EC50: > 15100 nM

## Cc1cc(N2C(=O)C3(CCC3)N(c3ccc(CC4CCNCC4)cc3)C2=S)cnc1C#N [Cpd 235, 3-methyl-5-[5-oxo-8-[4-(4-piperidylmethyl)phenyl]-7-thioxo-6,8-diazaspiro[3 4]octan-6-yl]pyridine-2-carbonitrile]
[1]
  Emax: 0.1%
  EC50: > 15100 nM
[2]
  Emax: 101%
  IC50: 1070 nM
[3]
  Emax: 101%
  IC50: 562 nM
[4]
  Emax: 0.2%
  EC50: > 15100 nM

## COc1cc(N2C(=O)C3(CCC3)N(c3ccc(CC4CCNCC4)cc3)C2=S)cnc1C#N [Cpd 236, 3-Methoxy-5-[8-oxo-5-(4-piperidin-4-ylmethyl-phenyl)-6-thioxo-5,7-diaza-spiro[3.4]oct-7-yl]-pyridine-2-carbonitrile]
[1]
  Emax: 0.2%
  EC50: > 15100 nM
[2]
  Emax: 103%
  IC50: 457 nM
[3]
  Emax: 101%
  IC50: 269 nM
[4]
  Emax: 0.6%
  EC50: > 15100 nM

## CN1CCC(Cc2ccc(N3C(=S)N(c4cnc(C#N)c(C(F)(F)F)c4)C(=O)C34CCC4)cc2)CC1 [Cpd 237, 5-[8-[4-[(1-methyl-4-piperidyl)methyl]phenyl]-5-oxo-7-thioxo-6,8-diazaspiro[3.4]octan-6-yl]-3-(trifluoromethyl)pyridine-2-carbonitrile]
[1]
  Emax: 0.1%
  EC50: > 15100 nM
[2]
  Emax: 104%
  IC50: 832 nM
[3]
  Emax: 100%
  IC50: 468 nM
[4]
  Emax: 0.4%
  EC50: > 15100 nM

## Cc1cc(N2C(=O)C3(CCC3)N(c3ccc(CC4CCN(C)CC4)cc3)C2=S)cnc1C#N [Cpd 238, 3-methyl-5-[8-[4-[(1-methyl-4-piperidyl)methyl]phenyl]-5-oxo-7-thioxo-6,8-diazaspiro[3.4]octan-6-yl]pyridine-2-carbonitrile]
[1]
  Emax: 0.1%
  EC50: > 15100 nM
[2]
  Emax: 101%
  IC50: 1410 nM
[3]
  Emax: 101%
  IC50: 813 nM
[4]
  Emax: 0%
  EC50: > 15100 nM

## COc1cc(N2C(=O)C3(CCC3)N(c3ccc(CC4CCN(C)CC4)cc3)C2=S)cnc1C#N [Cpd 239, 3-methoxy-5-[8-[4-[(1-methyl-4-piperidyl)methyl]phenyl]-5-oxo-7-thioxo-6,8-diazaspiro[3.4]octan-6-yl]pyridine-2-carbonitrile]
[1]
  Emax: 0.2%
  EC50: > 15100 nM
[2]
  Emax: 103%
  IC50: 603 nM
[3]
  Emax: 102%
  IC50: 347 nM
[4]
  Emax: -0.1%
  EC50: > 15100 nM

## Cn1cnc2cc(N3C(=S)N(c4cnc(C#N)c(C(F)(F)F)c4)C(=O)C34CCC4)ccc21 [Cpd 244, 5-[8-(1-methylbenzimidazol-5-yl)-5-oxo-7-thioxo-6,8-diazaspiro[3.4]octan-6-yl]-3-(trifluoromethyl)pyridine-2-carbonitrile]
[1]
  Emax: -0.5%
  EC50: > 15100 nM
[2]
  Emax: 98.7%
  IC50: 646 nM
[3]
  Emax: 101%
  IC50: 245 nM
[4]
  Emax: 0.2%
  EC50: > 15100 nM

## Cc1nc2cc(N3C(=S)N(c4cnc(C#N)c(C(F)(F)F)c4)C(=O)C34CCC4)ccc2[nH]1 [Cpd 245, 5-[8-(2-methyl-1H-benzimidazol-5-yl)-5-oxo-7-thioxo-6,8-diazaspiro[3.4]octan-6-yl]-3-(trifluoromethyl)pyridine-2-carbonitrile]
[1]
  Emax: 0.5%
  EC50: > 15100 nM
[2]
  Emax: 99.3%
  IC50: 479 nM
[3]
  Emax: 102%
  IC50: 151 nM
[4]
  Emax: 0%
  EC50: > 15100 nM

## Cc1cc(N2C(=O)C3(CCC3)N(c3cnc(OC4CCNCC4)nc3)C2=S)cnc1C#N [Cpd 246, 3-methyl-5-[5-oxo-8-[2-(4-piperidyloxy)pyrimidin-5-yl]-7-thioxo-6,8-diazaspiro[3.4]octan-6-yl]pyridine-2-carbonitrile]
[1]
  Emax: 0.2%
  EC50: > 15100 nM
[2]
  Emax: 0%
  IC50: 1120 nM
[3]
  Emax: 99.5%
  IC50: 1150 nM
[4]
  Emax: 0.1%
  EC50: > 15100 nM

## Cc1cc(N2C(=O)C3(CCC3)N(c3cnc(OC4CCN(C)CC4)nc3)C2=S)cnc1C#N [Cpd 247, 3-Methyl-5-[8-[2-[(1-methyl-4-piperidyl)oxy]pyrimidin-5-yl]-5-oxo-7-thioxo-6,8-diazaspiro[3,4]octan-6-yl]pyridine-2-carbonitrile]
[1]
  Emax: 0.2%
  EC50: > 15100 nM
[2]
  Emax: 0%
  IC50: 1000 nM
[3]
  Emax: 99.4%
  IC50: 1200 nM
[4]
  Emax: -0.1%
  EC50: > 15100 nM
